# In publication PMC8036666, “Biological and Physico-Chemical Characteristics of Arginine-Rich Peptide Gemini Surfactants with Lysine and Cystine Spacers” (International Journal of Molecular Sciences, 2021):
# “And” between values parts separate entries of the source, which are not always exact repeats. Equal entries are not always repeated. Where a SMILES comes first, the peptide text is derived from it. Bridges are numbered along the chain shown (N, C = ends). Roman numbers before positions name the chains, in order. Side-chain parts run from the residue outwards. The star is where a group is joined. Myristoyl = CCCCCCCCCCCCCC(=O)*; Lauroyl = CCCCCCCCCCCC(=O)*; Decanoyl = CCCCCCCCCC(=O)*
# Key:
# [1] = Lipopeptide hydrophobicity by RP-HPLC (adjusted retention time); type: physicochemical; details: for Adjusted Retention Time: RP-HPLC, 20–65% acetonitrile over 30 min, indicator of hydrophobicity
# Procedure: (§1) The identity of the purified peptides was confirmed with electrospray ionization mass spectrometry (ESI-MS) in positive ion mode. Results of MS analyses and net charge are attached in Supplementary Materials (Table S1). Peptides’ hydrophobicity was evaluated by analytical reversed-phase high-performance liquid chromatography (RP-HPLC). The critical aggregation concentrations (CACs) of the lipopeptides were determined in unbuffered aqueous solution at 298 K by measuring the surface tension as a function of lipopeptide concentration. The measurements were carried out by the Du Noüy ring method on a K100 tensiometer. The surface tension data were plotted against the logarithm of lipopeptide concentration. CAC was found as the intersection of two lines being linear regression of data below and above CAC.
# Lipopeptide hydrophobicity was determined as described previously. To do this, a Waters Alliance e2695 system with a Waters 2998 PDA Detector (software-Empower 3, Waters, Milford, MA, USA) was used. All analyses were carried out on a Waters X-Bridge Shield RP-18 column (3.0 × 100 mm, 3.5 μm particle size, 130 Å pore size). The Shield Technology column with embedded polar groups was used to minimize interactions of unreacted silanol groups with basic lipopeptides. The peptides were dissolved in water (0.1% TFA, v/v) up to a concentration of 1 mg/mL. UV detection at 214 nm was used, and samples (10 μL) were eluted with a linear 20–65% acetonitrile gradient in deionized water over 30 min at 25.0 ± 0.1 °C. The mobile phase flow rate was 0.5 mL/min. Both eluents contained 0.1% (v/v) of TFA. Each peptide sample was analyzed in triplicate. The maximum standard deviation and coefficient of variation were 0.044 and 0.85%, respectively.
# [2] = Critical aggregation concentration by surface tension (Du Noüy ring, K100 tensiometer); type: physicochemical; details: unbuffered aqueous solution, 298 K
# Procedure: as §1
# The critical aggregation concentration (CAC) values were determined fully automatically using a K100 tensiometer (KRUSS, Hamburg, Germany) equipped with two micro dosimeters by measuring the surface tension vs. lipopeptide concentration. The measurements were performed in unbuffered aqueous solution at 298 K using the Du Noüy ring method. The accuracy of the surface tension measurements was 0.1 mN/m. The critical aggregation concentration (CAC) was defined as the intersection of two lines fitted to the experimental data collected before and after the inflection point.
# [3] = test system: Acinetobacter baumannii ATCC BAA 1605; details: ATCC BAA 1605, 24 h
# Procedure: (§2) The Acinetobacter baumannii ATCC BAA-1605, Enterococcus faecium ATCC 700221, Escherichia coli ML-35 ATCC 43827, Klebsiella aerogenes ATCC 13048, Klebsiella pneumoniae ATCC 700603, Pseudomonas aeruginosa ATCC 9027, Staphylococcus aureus ATCC 25923, Staphylococcus aureus ATCC 33591, Candida albicans ATCC 10231, Candida glabrata ATCC 15126, strains were acquired from the American Type Culture Collection (ATCC). All the strains were stored at −80 °C in Roti-Store cryo vials and before the tests were transferred into fresh Mueller–Hinton broth (MHB, Biocorp, Warsaw, Poland) for bacteria or RPMI-1640 (Sigma-Aldrich, Steinheim, Germany) for fungi and incubated for 24 h at 37 °C. Then, the cultures were seeded on the Mueller–Hinton agar (BioMaxima, Lublin, Poland) or Sabouraud dextrose agar (SDA, BioMaxima, Lublin, Poland) plates, respectively, and incubated as just mentioned. These agar cultures were used for further microbiological assays. Cell densities for all assays were adjusted spectrophotometrically (Multiskan GO Microplate Spectrophotometer, Thermo Fisher Scientific, Vantaa, Finland) at 600 and 530 nm for bacteria and fungi, respectively.
# (§3) The MICs were determined by the broth microdilution method according to the Clinical and Laboratory Standard Institute guidelines. […] The experiments were conducted on 96-well microtiter polystyrene plates (Kartell, Noviglio, Italy). The growth was assessed visually after incubation, and the MIC was assumed as the lowest peptide concentration at which a noticeable growth of microorganisms was inhibited. All experiments were conducted in triplicate.
# [4] = test system: Enterococcus faecium ATCC 700221; details: ATCC 700221, 24 h
# Procedure: as §2, §3
# [5] = test system: Klebsiella aerogenes ATCC 13048; details: ATCC 13048, 24 h
# Procedure: as §2, §3
# [6] = test system: Klebsiella pneumoniae ATCC 700603; details: ATCC 700603, 24 h
# Procedure: as §2, §3
# [7] = test system: Pseudomonas aeruginosa ATCC 9027; details: ATCC 9027, 24 h
# Procedure: as §2, §3
# [8] = test system: Staphylococcus aureus ATCC 25923; details: ATCC 25923, 24 h
# Procedure: as §2, §3
# [9] = test system: Acinetobacter baumannii ATCC BAA 1605; type: cell-based; details: ATCC BAA 1605, 24 h
# Procedure: (§4) Biofilm is associated with life-threating infections due to its outstanding resistance to antibiotics. In this study, the antibiofilm characteristics of USCLs and gemini surfactants were evaluated.
# (§5) The MBECs were determined as described previously using 96-well polystyrene flat-bottom plates. For this purpose, 24 h cultures of microorganisms were diluted to obtain a final density of 5.0 × 10^5 CFU/mL and 2.0 × 10^5 CFU/mL of bacteria and fungi, respectively. Microorganisms were diluted in MHB or RPMI-1640 with 2% D-glucose (bacteria and fungi, respectively). Briefly, 100 µL of cell suspension was added into the test plates. After 24 h of incubation at 37 °C, the wells were rinsed three times with a PBS (pH 7.4) to remove non-adherent cells. Subsequently, 100 μL of the test compounds in a concentration range (1–512 μg/mL) were added to each well. After 24 h of incubation at 37 °C, 20 μL of a cell viability reagent was added (resazurin, 4 g/L; Sigma Aldrich, St. Louis, MO, USA). The MBEC was read after 1 h. The determined values were recorded as the lowest concentration at which the reduction of resazurin (from blue to pink) was lower or equal to 10 ± 0.5% as compared to the positive (100%) and negative (0%) controls. The reduction was monitored by measuring absorbance at 570 nm (reduced) and 600 nm (oxidized) using a microplate spectrophotometer (Multiskan GO Microplate Spectrophotometer, Thermo Fisher Scientific, Vantaa, Finland). All experiments were conducted in triplicate.
# [10] = test system: Candida glabrata ATCC 15126; type: cell-based; details: ATCC 15126, 24 h
# Procedure: as §4, §5
# [11] = test system: Klebsiella aerogenes ATCC 13048; type: cell-based; details: ATCC 13048, 24 h
# Procedure: as §4, §5
# [12] = test system: Staphylococcus aureus ATCC 25923; type: cell-based; details: ATCC 25923, 24 h
# Procedure: as §4, §5
# [13] = test system: Staphylococcus aureus ATCC 33591; type: cell-based; details: ATCC 33591, 24 h
# Procedure: as §4, §5
Structure (SMILES),Adjusted Retention Time [1],CAC [2],Surface Tension at CAC [2],MIC Acinetobacter baumannii ATCC BAA 1605 [3],MIC Enterococcus faecium ATCC 700221 [4],MIC Klebsiella aerogenes ATCC 13048 [5],MIC Klebsiella pneumoniae ATCC 700603 [6],MIC Pseudomonas aeruginosa ATCC 9027 [7],MIC Staphylococcus aureus ATCC 25923 [8],MBEC Acinetobacter baumannii ATCC BAA 1605 [9],MBEC Candida glabrata ATCC 15126 [10],MBEC Klebsiella aerogenes ATCC 13048 [11],MBEC Staphylococcus aureus ATCC 25923 [12],MBEC Staphylococcus aureus ATCC 33591 [13],Difference in retention time calculated as tR’C—tR’B ([1]; between corresponding surfactants of series C and B)
"CCCCCCCCCCCC(=O)N[C@@H](CCCNC(=N)N)C(=O)N[C@@H](CCCNC(=N)N)C(N)=O [Compound A3, C12-RR-NH2] (Lauroyl-Arg-Arg-NH2)",12.15 min,7.48 mM and 3827.3 μg/mL,38 mN/m,256 (−/−) µg/mL,32 µg/mL,>256 (−/−) µg/mL,>256 (−/−) µg/mL,128 µg/mL,32 µg/mL,512 µg/mL,512 µg/mL,512 µg/mL,64 µg/mL,64 µg/mL,
CCCCCCCCCCCCCC(=O)N[C@@H](CCCNC(=N)N)C(=O)N[C@@H](CCCNC(=N)N)C(=O)NCCCC[C@H](NC(=O)[C@H](CCCNC(=N)N)NC(=O)[C@H](CCCNC(=N)N)NC(=O)CCCCCCCCCCCCC)C(N)=O [Compound B4] (Myristoyl-Arg-Arg-Lys([Arg-Arg-Myristoyl])-NH2),25.33 min,0.31 mM and 365.7 μg/mL,40 mN/m,64 µg/mL,8 µg/mL,32 µg/mL,32 µg/mL,32 µg/mL,64 µg/mL,512 µg/mL,64 µg/mL,256 µg/mL,256 µg/mL,128 µg/mL,
CCCCCCCCCC(=O)N[C@@H](CCCNC(=N)N)C(=O)N[C@@H](CCCNC(=N)N)C(=O)N[C@@H](CSSC[C@H](NC(=O)[C@H](CCCNC(=N)N)NC(=O)[C@H](CCCNC(=N)N)NC(=O)CCCCCCCCC)C(N)=O)C(N)=O [Compound C2] (I: Decanoyl-Arg-Arg-Cys-NH2 / II: Decanoyl-Arg-Arg-Cys-NH2; disulfide I:3-II:3),13.94 min,3.30 mM and 3832.7 μg/mL,43 mN/m,16 µg/mL,2 µg/mL,128 µg/mL,>256 (−/−) µg/mL,8 µg/mL,2 µg/mL,256 µg/mL,512 µg/mL,256 µg/mL,32 µg/mL,8 µg/mL,0.21 min
CCCCCCCCCC(=O)N[C@@H](CCCNC(=N)N)C(=O)N[C@@H](CCCNC(=N)N)C(=O)NCCCC[C@H](NC(=O)[C@H](CCCNC(=N)N)NC(=O)[C@H](CCCNC(=N)N)NC(=O)CCCCCCCCC)C(N)=O [Compound B2] (Decanoyl-Arg-Arg-Lys([Arg-Arg-Decanoyl])-NH2),13.73 min,3.69 mM and 3980.0 μg/mL,36 mN/m,8 µg/mL,2 µg/mL,128 µg/mL,128 µg/mL,8 µg/mL,1 µg/mL,128 µg/mL,512 µg/mL,256 µg/mL,8 µg/mL,4 µg/mL,
